Key:
[1] = tested on: mouse model of normotensive glaucoma; set-up: method as in PMID 25032856; details: cited from earlier work
[2] = tested on: rat model with IOP elevation; set-up: method as in PMID 19608537; details: oral; cited from earlier work
C57BL/6J mice [3] = experiment: Systolic BP by tail-cuff method in ARB-treated mice; type: in vivo, mouse; details: 2 g drug/kg chow, day 3; p < 10^-4
Procedure: BP was measured by the tail-cuff method (BP 2000 Blood Pressure Analysis System, Visitech Systems, Apex, NC, USA) according to manufacturer recommendations and as previously described by an operator blinded to the treatment status of the mice. In brief, mice were restrained and their tail placed through an inflatable tail cuff held in place by adhesive tape. […] Mice were conditioned to the system prior to experimental measurements by being subjected to the full recording procedure daily for several days. Acclimation and BP measurements were performed between 9:00 and 11:00 a.m. Since diastolic measurements are inherently inaccurate with this method, only systolic BP is reported here. […] Sample sizes were not pre-determined by statistical methods, but are similar to or exceed numbers typical of similar experiments. The IOP changes of treated mice relative to the IOP changes of normal chow fed mice were presented with mean and 95% confidence interval based on t-statistics. A linear regression model for BP change from baseline was used to study effects of ARBs on BP, adjusting for baseline BP. For comparing IOP in groups of mice untreated or treated with ARBs for 3 and 7 days, a mixed effects model that included baseline IOP, left versus right eye, time of measurement and interaction between time and drug with random effects of intercept and slope within individual mice was used, adjusting for correlation between left and right eye within the same mouse, as well as repeated measurements over time. A one-way ANOVA was used for comparing chow pSmad2 fluorescence of mice untreated or treated with ARBs. The models for BP, IOP, and pSmad2 fluorescence were followed by Dunnett’s method for multiple comparisons correction. Differences in the change in IOP for each drug, relative to change in IOP of normal-fed control were evaluated at day 3 and day 7 of treatment, and differences in the rate of change in IOP were evaluated as the slope of the line defined by relative change at days 3 and 7. […]

[4] = Solubilization in unbuffered water; type: physicochemical; details: attempt to solubilize for drinking water delivery
AT1R = target: AT1R; set-up: method as in PMID 20603272; details: cited from earlier work
TGFβ signaling (pSmad2) = experiment: pSmad2 immunohistochemistry of the retina (RGC layer) as read-out of TGFβ signaling; type: in vivo, mouse; details: 2 g/kg in chow, 7 days, 3 days
Procedure: Eyes were enucleated and post-fixed in PBS/PFA for an additional 24–48 h and embedded in paraffin. Five micron-thick sections were deparaffinized, incubated at 90°C for 30 mins in 10 mM sodium citrate buffer, pH 6.0 for epitope retrieval and then incubated for 2 h at room temperature in blocking solution (PBS/5% normal donkey serum/1% BSA/0.1% Tween-20). Sections were then incubated with rabbit polyclonal antibody to pSmad2 (1:100, Thermo Fisher Scientific, MA, USA) in blocking solution overnight at 4°C in a humidified chamber. Following three 5 min washes in wash solution (PBS/0.1% Tween-20), sections were incubated in AlexaFluor-546 labeled donkey anti-rabbit IgG diluted 1:1000 in blocking solution for 2 h at room temperature in a dark humidified chamber. Sections were washed again three times for 5 mins each in wash solution and cover-slipped with Prolong Gold Antifade with DAPI mounting medium (Thermo Fisher Scientific). Sections were imaged using a Nikon AZ 100M upright, wide-field microscope using a 5x Plan Fluor/0.5 NA air objective and captured with a Nikon DS-Ri1 color camera (Nikon Instruments, Melville, NY, USA). Retinal images were acquired adjacent to the optic nerve head. Immunostaining and imaging experiments using the right eye of each mouse were carried out in batches of sections that included samples from two vehicle-fed mice and two samples each from losartan, irbesartan and telmisartan-fed mice using identical image acquisition parameters within each batch. Immunostaining and imaging experiments were carried out twice for each batch of samples. Mean fluorescence intensity of pSmad2 immunofluorescence was quantified using FIJI (ImageJ) biological image analysis package. Background-subtracted mean fluorescence intensity of the RGC layer was determined by subtracting the mean background intensity within the adjacent inner plexiform layer from the mean fluorescence intensity within a mask drawn around the RGC layer. Normalized background-subtracted mean fluorescence intensity within each batch of samples was determined by dividing the background-subtracted mean fluorescence intensity of each sample by the average of the background-subtracted mean fluorescence intensities of the two vehicle-fed control samples. For each mouse, normalized background-subtracted mean fluorescence intensity was determined as the average of duplicate experiments and is presented as normalized mean fluorescence.

C57BL/6J mice [5] = experiment: IOP measurement with Tonolab rebound tonometer in ARB-treated mice; type: in vivo, mouse; details: for Change in IOP compared to normal chow control / Average reduction of the median IOP / Rate of IOP reduction compared to control: 2 g/kg in chow; for Change in IOP compared to normal chow control: after 3 and 7 days of treatment; for Average reduction of the median IOP: compared to day 0; for Rate of IOP reduction compared to control: slope between days 3 and 7; for Median IOP at day 0: before start of chow treatment, by treatment group
Procedure: IOP of mice anesthetized with 2.5% isoflurane in oxygen delivered at 1.5 L/min by an inhalation anesthesia system (Vet Equip, Livermore, CA, USA) was measured using a Tonolab rebound tonometer (Icare, Vantaa, Finland) following manufacturer’s recommendations by an operator blinded to the treatment status of the mice. Measurements were performed within 3 mins of immobilization to minimize isoflurane-induced IOP changes and at the same time of day (1:00–3:00 p.m.) to avoid diurnal variation.
Sample sizes were not pre-determined by statistical methods, but are similar to or exceed numbers typical of similar experiments. The IOP changes of treated mice relative to the IOP changes of normal chow fed mice were presented with mean and 95% confidence interval based on t-statistics. A linear regression model for BP change from baseline was used to study effects of ARBs on BP, adjusting for baseline BP. For comparing IOP in groups of mice untreated or treated with ARBs for 3 and 7 days, a mixed effects model that included baseline IOP, left versus right eye, time of measurement and interaction between time and drug with random effects of intercept and slope within individual mice was used, adjusting for correlation between left and right eye within the same mouse, as well as repeated measurements over time. A one-way ANOVA was used for comparing chow pSmad2 fluorescence of mice untreated or treated with ARBs. The models for BP, IOP, and pSmad2 fluorescence were followed by Dunnett’s method for multiple comparisons correction. Differences in the change in IOP for each drug, relative to change in IOP of normal-fed control were evaluated at day 3 and day 7 of treatment, and differences in the rate of change in IOP were evaluated as the slope of the line defined by relative change at days 3 and 7. Corrected p-values < 0.05 were considered significant. Linear regression and mixed effect model analysis was performed with R 3.4.1 (R Core Team. R: A language and environment for statistical computing. R Foundation for Statistical Computing, Vienna, Austria. URL http://www.R-project.org/, 2013). All other statistical analysis was performed using GraphPad Prism version 7.00 for Windows software (GraphPad Software, La Jolla, CA, USA).

[6] = tested on: rabbit eyes with induced IOP elevation; set-up: method as in PMID 10942157; details: eye drops of 0.1% losartan in saline; cited from earlier work
[7] = tested on: human glaucoma patients with elevated IOP, and normal controls; details: 50 mg oral dose; cited from earlier work
CD1 mice = details: cited from earlier work
[8] = tested on: rabbits with experimental and inherited elevated IOP; set-up: method as in PMID 11840352; details: cited from earlier work
[9] = tested on: monkeys with laser-induced IOP elevation; set-up: method as in PMID 15862169; details: cited from earlier work
[10] = set-up: method as in PMID 23487168; details: cited from earlier work

SMILES	Systolic BP compared to mice fed normal chow (C57BL/6J mice [3])	Solubility in unbuffered water [4]	Kd (AT1R) [nM]	Effect on pSmad2 fluorescence of the RGC layer (TGFβ signaling (pSmad2))	Change in IOP compared to normal chow control (C57BL/6J mice [5])	Average reduction of the median IOP (C57BL/6J mice [5]) [%]	Rate of IOP reduction compared to control (C57BL/6J mice [5])	Median IOP at day 0 (C57BL/6J mice [5])	other results
CCOc1nc2cccc(C(=O)O)c2n1Cc1ccc(-c2ccccc2-c2nnn[nH]2)cc1 [candesartan]									Effect on IOP ([1]; 10 mg/kg/day by oral gavage): no effect on IOP; Effect on RGCs and inner retina ([1]; orally administered): reduced loss of RGCs and thinning of the inner retina; Effect on IOP [2]: did not affect IOP; Effect on RGC loss [2]: reduced RGC loss
CCCCC1=NC2(CCCC2)C(=O)N1Cc1ccc(-c2ccccc2-c2nnn[nH]2)cc1 [irbesartan]	significantly lower BP	readily precipitated out of solution	~2	no significant effect	significant decreases in IOP	15.4	significantly greater than control	17.0	
CCCCc1nc(Cl)c(CO)n1Cc1ccc(-c2ccccc2-c2nn[nH]n2)cc1 [losartan, Losartan potassium]	significantly lower BP		~10	no significant effect	did not significantly lower IOP		no significant effect	16.9	Effect on IOP [6]: IOP-lowering effects; Mean reduction of IOP [7]: ≤ 16%; Effect on IOP (CD1 mice; 0.6 g/L in drinking water, normotensive eyes or eyes with microbead-induced elevated IOP): no effect on IOP; Effect on RGCs (CD1 mice; oral via drinking water, eyes with elevated IOP induced by microbead injection): neuroprotective effect for RGCs; IOP after losartan treatment (C57BL/6J mice [5]; 1.2 g/L losartan in drinking water, 3 days, 10 female C57BL/6 mice 1 year of age, right eye, mean +/-SD, p = 0.4): 15.4 +/- 1.9 mmHg; Effect on IOP (C57BL/6J mice [5]; 1.2 g/L losartan in drinking water, 3 days, normal mice): did not affect IOP; IOP before losartan treatment (baseline) (C57BL/6J mice [5]; 1.2 g/L losartan in drinking water, 10 female C57BL/6 mice 1 year of age, right eye, mean +/-SD): 14.8 +/-1.4 mmHg
CCCc1nc(C(C)(C)O)c(C(=O)O)n1Cc1ccc(-c2ccccc2-c2nnn[nH]2)cc1 [olmesartan]									Effect on IOP [8]: IOP-lowering effects; Effect on IOP [9]: IOP-lowering effects
CCCc1nc2c(C)cc(-c3nc4ccccc4n3C)cc2n1Cc1ccc(-c2ccccc2C(=O)O)cc1 [telmisartan]	significantly lower BP	readily precipitated out of solution		significantly reduced	significant decreases in IOP	13.3	significantly greater than control	16.7	Reduction of pSmad2 fluorescence in the RGC layer compared to normal fed mice (TGFβ signaling (pSmad2); p = 0.034): 70%; Lipophilicity [10]: most lipophilic ARB
